Measured values taken from patent publication US20220153732A1, “PROTEIN SECRETION INHIBITORS” (KEZAR LIFE SCIENCES, priority 2019, published 2022).
Like-named read-outs stand apart in the source and are kept apart here.

What was measured:
Assay type in all cases: cell-based
[1] = system: HER3-ss+4aa/Gaussia Luciferase; test: Dox-Induced Her3-ss-Gluc Assay
In short: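 Compounds, diluted in DMSO/media containing doxycycline, were incubated at 37° C., 5% CO2 with cells seeded one day earlier. The cells stably express HER3-ss+4aa/Gaussia luciferase under T-REx control. Where no stereochemistry is shown, data refer to the mixture of stereoisomers.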

[2] = system: IL-2-FL/Gaussia Luciferase; test: Dox Induced IL2-FL-Gluc Assay
In short: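 Compounds were added together with doxycycline in DMSO/media and incubated at 37° C., 5% CO2. The cells were a stably selected line carrying IL-2-FL/Gaussia luciferase under T-REx inducible control. Structures drawn without stereochemistry were tested as stereoisomer mixtures.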

[3] = system: human multiple myeloma cell line U266B1; test: U266 Cell Viability Assay; conditions: U-266, 48 hr, U266B1 cells, Celltiter-Glo, read-out: 48 hr U266 Viability Celltiter-Glo: Mean EC50
In short: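 Viability measured by CellTiter-Glo luciferase signal after 48 h compound exposure (37 °C, 5% CO2) of U266B1 cells in 384-well format. Where stereochemistry is not shown, data refer to the stereoisomer mixture.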

[4] = system: TNFα-FL/Gaussia Luciferase; test: Dox Induced TNFα-FL-Gluc Assay
In short: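 Compounds were added in doxycycline-containing DMSO/media to cells plated the previous day and incubated at 37° C under 5% CO2. These cells stably express a TNFα-FL/Gaussia luciferase cDNA whose expression is under T-REx (Dox-inducible) control, selected with Hygromycin and Blasticidin.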

[5] = system: human multiple myeloma cell line NCI-H929; test: H929 Cell Viability Assay; conditions: 48 hr, NCI-H929 cells, Celltiter-Glo, read-out: 48 hr H929 Viability Celltiter-Glo: Mean EC50
Description: Plates were incubated at 37° C., 5% CO2 for 48 hours. After 48 hours, Celltiter-Glo® (Promega) was added to each well and luciferase signal was quantified using Tecan Infinite M1000 Pro for cell viability determination.
For chemical structures that include one or more stereoisomers, but are illustrated without indicating stereochemistry, the assay data refers to a mixture of stereoisomers.

[6] = system: PD1-ss+10aa/Gaussia Luciferase; test: Dox-Induced PD1-ss-Gluc Assay
In short: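 Compounds, diluted in DMSO/media with doxycycline, were added to cells plated a day earlier and kept at 37° C under 5% CO2. The cells stably express a Gaussia luciferase construct fused to PD1-ss+10aa, induced via the T-REx system. Unassigned stereochemistry means mixture data.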

[7] = 24 hr doxycycline induction, 293FRT/TO cells, Gaussia luciferase signal; read-out: 24 hr Dox Inducible Her3(ss + 4)Gluc 293FRT/TO: Mean IC50
[8] = 24 hr doxycycline induction, 293FRT/TO cells, Gaussia luciferase signal; read-out: 24 hr Dox Inducible IL2FLGIuc 293FRT/TO: Mean IC50
[9] = 24 hr doxycycline induction, 293FRT/TO cells, Gaussia luciferase signal; read-out: 24 hr Dox Inducible TNFaFLGluc 293FRT/TO: Mean IC50
[10] = 24 hr doxycycline induction, 293FRT/TO cells, Gaussia luciferase signal; read-out: 24 hr Dox Inducible PD1ssGluc 293FRT/TO: Mean IC50
[11] = 24 hr, doxycycline-induced, 293FRT/TO cells; read-out: 24 hr Dox Inducible Her3(ss + 4)Gluc 293FRT/TO: Mean IC50
[12] = 24 hr, doxycycline-induced, 293FRT/TO cells; read-out: 24 hr Dox Inducible IL2FLGIuc 293FRT/TO: Mean IC50
[13] = 24 hr, doxycycline-induced, 293FRT/TO cells; read-out: 24 hr Dox Inducible TNFaFLGluc 293FRT/TO: Mean IC50
[14] = 24 hr, doxycycline-induced, 293FRT/TO cells; read-out: 24 hr Dox Inducible PD1ssGluc 293FRT/TO: Mean IC50

SMILES	IC50 [1, 7] [µM]	IC50 [2, 8] [µM]	EC50 [3] [µM]	IC50 [4, 9] [µM]	EC50 [5] [µM]	IC50 [6, 10] [µM]	IC50 [1, 11] [µM]	IC50 [2, 12] [µM]	IC50 [4, 13] [µM]	IC50 [6, 14] [µM]	IC50 ([1]; read-out: 24 hr Dox Inducible Her3(ss + 4)Gluc 293FRT/TO: Mean IC50; 24 hr doxycycline induction, 293FRT/TO cells, Gaussia luciferase signal) [µM]	IC50 ([2]; read-out: 24 hr Dox Inducible IL2FLGIuc 293FRT/TO: Mean IC50; 24 hr doxycycline induction, 293FRT/TO cells, Gaussia luciferase signal) [µM]	IC50 ([4]; read-out: 24 hr Dox Inducible TNFaFLGluc 293FRT/TO: Mean IC50; 24 hr doxycycline induction, 293FRT/TO cells, Gaussia luciferase signal) [µM]	IC50 ([6]; read-out: 24 hr Dox Inducible PD1ssGluc 293FRT/TO: Mean IC50; 24 hr doxycycline induction, 293FRT/TO cells, Gaussia luciferase signal) [µM]
CCc1nc(NC(=O)[C@H]2CCCN2Cc2ccncc2)sc1C [Compound B24]			> 25		> 25		> 25	> 25	> 25	> 25				
O=C(Nc1nc(/C=C/c2cccc(Cl)c2)cs1)c1cccn1Cc1ccncc1 [Compound A209, N-(4-(3-chlorostyryl)thiazol-2-yl)-1-(pyridin-4-ylmethyl)-1H-pyrrole-2-carboxamide]	0.578	1.24	> 25	4.74	> 25	0.232								
CC(C)OC(C)(C)c1csc(NC(=O)c2ccc(C(N)=O)n2Cc2ccncc2)n1 [Compound A105, N-(4-(2-isopropoxypropan-2-yl)thiazol-2-yl)-1-(pyridin-4-ylmethyl)-1H-pyrrole-2,5-dicarboxamide]	> 25	> 25	> 25	> 25	> 25	> 25								
CC(C)OC(C)(C)c1csc(NC(=O)c2cccn2CC2CC(=O)N(C)C2)n1 (stereo not drawn) [Compound A210, N-(4-(2-isopropoxypropan-2-yl)thiazol-2-yl)-1-((1-methyl-5-oxopyrrolidin-3-yl)methyl)-1H-pyrrole-2-carboxamide]			> 25		> 25						> 25	> 25	> 25	> 25
CC(C)OC(C)(C)c1csc(NC(=O)c2ccn(Cc3ccncc3)c2)n1 [Compound A122, N-(4-(2-isopropoxypropan-2-yl)thiazol-2-yl)-1-(pyridin-4-ylmethyl)-1H-pyrrole-3-carboxamide]	> 25	> 25	> 25	> 25	> 25	> 25								
CC(C)(C)c1csc(NC(=O)c2cccn2Cc2ccncc2)n1 [Compound A45, N-(4-(tert-butyl)thiazol-2-yl)-1-(pyridin-4-ylmethyl)-1H-pyrrole-2-carboxamide]	1.65	0.869	> 25	13.8	> 25	0.965								
CNC(=O)c1cnc(NC(=O)c2cccn2Cc2ccncc2)s1 [Compound B16]			> 25		> 25		> 25	> 25	> 25	> 25				
CCc1cc(N(C)C(=O)c2cccn2Cc2ccncc2)ccc1C [Compound B25, N-(3-ethyl-4-methylphenyl)-N-methyl-1-(pyridin-4-ylmethyl)-1H-pyrrole-2-carboxamide]			> 25		> 25		> 25	> 25	> 25	> 25				
COc1ccc([C@H]2C[C@H]2c2csc(NC(=O)c3cccn3Cc3ccncc3)n2)nc1 [Compound A312]			> 25		> 25		0.646	1.14	4.13	0.197				
O=C(Nc1nc([C@H]2CCCN2c2ccc3c(c2)OCO3)cs1)c1cccn1Cc1ccncc1 [Compound A359]			> 25		0.382		0.013	0.015	0.083	0.011				

Second part, led by results:

IC50 [1, 7] [µM]	IC50 [2, 8] [µM]	EC50 [3] [µM]	IC50 [4, 9] [µM]	EC50 [5] [µM]	IC50 [6, 10] [µM]	IC50 [1, 11] [µM]	IC50 [2, 12] [µM]	IC50 [4, 13] [µM]	IC50 [6, 14] [µM]	SMILES	IC50 ([1]; read-out: 24 hr Dox Inducible Her3(ss + 4)Gluc 293FRT/TO: Mean IC50; 24 hr doxycycline induction, 293FRT/TO cells, Gaussia luciferase signal) [µM]	IC50 ([2]; read-out: 24 hr Dox Inducible IL2FLGIuc 293FRT/TO: Mean IC50; 24 hr doxycycline induction, 293FRT/TO cells, Gaussia luciferase signal) [µM]	IC50 ([4]; read-out: 24 hr Dox Inducible TNFaFLGluc 293FRT/TO: Mean IC50; 24 hr doxycycline induction, 293FRT/TO cells, Gaussia luciferase signal) [µM]	IC50 ([6]; read-out: 24 hr Dox Inducible PD1ssGluc 293FRT/TO: Mean IC50; 24 hr doxycycline induction, 293FRT/TO cells, Gaussia luciferase signal) [µM]
4.15	4.78	> 25	> 25	> 25	1.84					CCc1nc(NC(=O)c2cccn2Cc2ccncc2Cl)sc1C [Compound A66, 1-((3-chloropyridin-4-yl)methyl)-N-(4-ethyl-5-methylthiazol-2-yl)-1H-pyrrole-2-carboxamide]				
4.3	5.07	> 25	> 25	> 25	1.69					CCCc1cnc(NC(=O)c2cccn2Cc2ccncc2)s1 [Compound A62]				
1.94	2.3	> 25	> 25	> 25	0.692					CCc1csc(NC(=O)c2cccn2Cc2ccncc2)n1 [Compound A35, N-(4-ethylthiazol-2-yl)-1-(pyridin-4-ylmethyl)-1H-pyrrole-2-carboxamide]				
		> 25		> 25		0.313	0.762	3.17	0.117	O=C(Nc1nc(C2CN(c3ccccc3)C2)cs1)c1cccn1Cc1ccncc1 [Compound A316]				
1.8	2.27	> 25	7.7	19.1	0.348					O=C(Nc1nc(/C=C/c2ccoc2)cs1)c1cccn1Cc1ccncc1 [Compound A222, N-(4-(2-(furan-3-yl)vinyl)thiazol-2-yl)-1-(pyridin-4-ylmethyl)-1H-pyrrole-2-carboxamide]				
		> 25		> 25		4.32	6.29	> 25	1.89	O=C(Nc1ncc(Cl)s1)c1cccn1Cc1ccncc1 [Compound B1]				
> 25	> 21.6	> 25	> 25	> 25	11.9					CC(C)OC(C)(C)c1csc(NC(=O)c2cccn2CCc2ccncc2)n1 [Compound A91, N-(4-(2-isopropoxypropan-2-yl)thiazol-2-yl)-1-(2-(pyridin-4-yl)ethyl)-1H-pyrrole-2-carboxamide]				
		> 25		22.8		0.342	0.739	3.16	0.202	O=C(Nc1nc([C@H]2C[C@H](Oc3ccccc3)C2)cs1)c1cccn1Cc1ccncc1 [Compound A329]				
> 25	> 25	> 25	> 25	> 25	8					CC(C)OC(C)(C)c1csc(NC(=O)c2c(Cl)ccn2Cc2ccncc2)n1 [Compound A86, 3-chloro-N-(4-(2-isopropoxypropan-2-yl)thiazol-2-yl)-1-(pyridin-4-ylmethyl)-1H-pyrrole-2-carboxamide]				
> 25	> 25	> 25	> 25	> 25	19.9					CC(=O)N(C)c1ccc(Cn2cccc2C(=O)Nc2nc(C(C)(C)OC(C)C)cs2)cc1 [Compound A99, N-(4-(2-isopropoxypropan-2-yl)thiazol-2-yl)-1-(4-(N-methylacetamido)benzyl)-1H-pyrrole-2-carboxamide]				
> 25	> 25	> 25	> 25	> 25	13.2					CC(C)OC(C)(C)c1csc(NC(=O)c2cccn2CC2CNC(=O)C2)n1 (stereo not drawn) [Compound A93, N-(4-(2-isopropoxypropan-2-yl)thiazol-2-yl)-1-((5-oxopyrrolidin-3-yl)methyl)-1H-pyrrole-2-carboxamide]				
4.94	6.05	17.7	> 25	13.8	12.1					O=C(Nc1nc(Cc2ccccc2)cs1)c1cccn1Cc1ccncc1NCc1ccccc1 [Compound A213, 1-((3-(benzylamino)pyridin-4-yl)methyl)-N-(4-benzylthiazol-2-yl)-1H-pyrrole-2-carboxamide]				
